Source: paper PMC9303275, “Direct adenylation from 5′-OH-terminated oligonucleotides by a fusion enzyme containing Pfu RNA ligase and T4 polynucleotide kinase” (Nucleic Acids Research, 2022)

What was measured:
Pfu RNA ligase (Pfu Rnl) = molecular target: T1, Pfu RNA ligase (Pfu Rnl) (Pyrococcus furiosus, UniProt Q8U3V2); assay: oligonucleotide adenylation, denaturing urea-PAGE, SYBR Gold; type: biochemical
T1 construct: gene PF0353; full length, 379 aa, N-terminal 8xHis tag (not reported cut), codon optimised, pET28a, E. coli BL21(DE3), ~42 kDa, mainly homodimer
T1 sequence (Q8U3V2 1-379): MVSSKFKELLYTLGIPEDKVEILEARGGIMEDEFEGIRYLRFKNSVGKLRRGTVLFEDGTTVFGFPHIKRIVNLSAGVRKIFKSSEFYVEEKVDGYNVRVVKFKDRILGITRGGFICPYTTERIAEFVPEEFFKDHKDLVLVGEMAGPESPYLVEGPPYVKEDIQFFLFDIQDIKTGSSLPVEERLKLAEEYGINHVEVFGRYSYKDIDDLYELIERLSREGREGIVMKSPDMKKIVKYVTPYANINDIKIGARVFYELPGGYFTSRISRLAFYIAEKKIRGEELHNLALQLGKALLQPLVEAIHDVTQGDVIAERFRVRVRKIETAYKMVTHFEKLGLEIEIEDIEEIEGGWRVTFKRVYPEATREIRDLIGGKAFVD

Mth RNA ligase (Mth Rnl) = molecular target: T2, Mth RNA ligase (Mth Rnl) (Methanothermobacter thermautotrophicus, UniProt O27289); assay: oligonucleotide adenylation, denaturing urea-PAGE; type: biochemical; details: 5'-phosphorylated 55-nt ssDNA; commercial kit protocol
T2 construct: gene MTH_1221; commercial enzyme (New England Biolabs, 5' DNA adenylation kit)
T2 sequence (O27289 1-381): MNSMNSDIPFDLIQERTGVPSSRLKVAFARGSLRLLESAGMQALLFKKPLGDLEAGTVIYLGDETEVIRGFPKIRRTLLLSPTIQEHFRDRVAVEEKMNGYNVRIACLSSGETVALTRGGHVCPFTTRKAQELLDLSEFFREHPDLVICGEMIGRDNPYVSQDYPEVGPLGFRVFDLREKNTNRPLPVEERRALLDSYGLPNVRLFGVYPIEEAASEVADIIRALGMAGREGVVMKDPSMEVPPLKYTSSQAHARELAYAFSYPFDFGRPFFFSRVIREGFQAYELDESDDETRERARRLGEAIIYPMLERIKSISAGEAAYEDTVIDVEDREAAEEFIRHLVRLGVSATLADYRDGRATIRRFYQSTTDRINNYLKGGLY

[1] = molecular target: the molecule itself; assay: SEC; gel filtration on HiLoad 26/600 Superdex 200 pg, 50 mM phosphate, 150 mM NaCl, pH 7.0, 2.6 ml/min; elution volumes compared with molecular weight standards; each protein loaded separately

With `Nc1ncnc2c1ncn2[C@@H]1O[C@H](COP(=O)(O)OP(=O)(O)O)[C@@H](O)[C@H]1O` [ADP] the “oligonucleotide adenylation, denaturing urea-PAGE, SYBR Gold” value (Pfu RNA ligase (Pfu Rnl); 5'-phosphorylated 17-nt and 55-nt ssDNA, 5 mM MgCl2, 70 mM Tris-HCl pH 7.0, 80 °C, weak activity) was “weak catalytic activity with ADP and almost no catalytic activity with AMP”.

`Nc1ncnc2c1ncn2[C@@H]1O[C@H](COP(=O)(O)OP(=O)(O)OP(=O)(O)O)[C@@H](O)[C@H]1O` [ATP] was tested, and the “oligonucleotide adenylation, denaturing urea-PAGE” value (Mth RNA ligase (Mth Rnl)) was “As expected, both enzymes achieved near complete conversion” and the “oligonucleotide adenylation, denaturing urea-PAGE, SYBR Gold” value (Pfu RNA ligase (Pfu Rnl); 5'-phosphorylated ssDNA, 5 mM MgCl2, 70 mM Tris-HCl pH 7.0, 5 mM DTT, 80 °C, 30 min) was “Pfu Rnl showed the best activity with ATP as the adenosyl source”.

B1: Pfu RNA ligase (enzyme, Pyrococcus furiosus, UniProt Q8U3V2 1-379, looked up)
chain: T1 sequence (Q8U3V2 1-379)
notes: Pfu RNA ligase (Pfu Rnl) of Pyrococcus furiosus, encoded by the PF0353 gene, 379 amino acids, full length; No tag removal is described; also called Pfu Rnl; Q8U3V2 protein; source: E. coli BL21(DE3), purified (HisTrap FF, HiTrap Heparin HP)
With B1 the “stoichiometry N” value [1] was 2.
